≈ marks a conversion by molar mass, not a printed value.
Legend:
[1] = test system: S. aureus clinical strain 051N (MRSA); design: method as in earlier work; conditions: clinical isolate 051N (MRSA), nasal swab; cited from earlier work
[2] = test system: S. aureus clinical strain 009S; design: method as in earlier work; conditions: clinical isolate 009S, skin; cited from earlier work
[3] = test system: S. aureus clinical strain 015N (MRSA); design: method as in earlier work; conditions: clinical isolate 015N (MRSA), nasal swab; cited from earlier work
[4] = test system: S. aureus clinical strain 043SC (MRSA); design: method as in earlier work; conditions: clinical isolate 043SC (MRSA), skin of patient with furuncle folliculitis; cited from earlier work
[5] = test system: S. aureus clinical strain 031S; design: method as in earlier work; conditions: clinical isolate 031S, skin; cited from earlier work
[6] = test system: S. aureus clinical strain 004N (MRSA); design: method as in earlier work; conditions: clinical isolate 004N (MRSA), nasal swab; cited from earlier work
[7] = test system: S. aureus ATCC 33591 (MRSA); assay: microbe, parasite or virus in culture
Description: (§1) Clinical S. aureus strains were collected from patients with atopic dermatitis during their visits to the Outpatient Clinic and hospitalization in the Department of Dermatology, Venereology and Allergology at Medical University of Gdańsk (following the approval from the ethics committee, Approval Number NKBBN/242–477/2014). Reference strains of S. aureus ATCC 25923, S. aureus ATCC 33591, S. aureus ATCC 9144, and S. aureus ATCC 12598 were obtained from the American Type Culture Collection. All the strains were stored at − 80 °C in Roti®-Store cryo vials (Carl Roth GmbH, Karlsruhe, Germany) and before the tests were transferred into fresh Mueller–Hinton Medium (BioMaxima, Lublin, Poland) and incubated for 24 h at 37 °C. Subsequently, each bacterial inoculum was seeded on Mueller–Hinton agar plates (BioMaxima) and incubated again for 24 h. The cultures prepared in this way were used in further antimicrobial assays. Minimum inhibitory concentrations (MICs) were determined according to the Clinical and Laboratory Standards Institute recommendations. […] The experiments were conducted on 96-well microtiter plates, with a final volume of 100 μL. Additionally, in the case of daptomycin, the medium was supplemented with Ca^2+ (50 mg/L). Cell densities were adjusted spectrophotometrically (Multiskan™ GO Microplate Spectrophotometer, Thermo Scientific) at 600 nm. The MICs were taken as the lowest drug concentration at which a visible growth of the microorganisms was inhibited. Minimum biofilm eliminating concentrations (MBECs) were determined on 96-well flat-bottomed microtiter polystyrene plates with resazurin (7-hydroxy-3H-phenoxazin-3-one 10-oxide sodium salt) as a cell viability reagent. To do this, the plates were filled with 100 μL of the initial inoculums of bacteria (0.5 × 10^7 CFU/mL) in the Mueller–Hinton broth and incubated for 24 h at 37 °C. […] After 24 h of incubation, 20 μL of resazurin (4 mg/mL) was added to each well and the MBEC values were read. Minimum biofilm inhibitory concentrations (MBICs) were also determined on 96-well flat-bottomed microtiter polystyrene plates as described previously. To do this, 50 μL of the compounds in the concentration range, diluted MHB, were prepared. Subsequently, the 50 μL of the staphylococcal inoculums were added to reach the same density of bacteria as that in the MBEC assay. After 24 h of incubation at 37 °C, the wells were rinsed three times with PBS and the fresh medium (100 μL) with resazurin (0.6 mg/mL) was added. Then, after 1 h of incubation, MBICs were read. […] All experiments were conducted in triplicate.
(§2) Formation of the biofilm inside the PDMS flow chambers was performed using three peristaltic pumps working simultaneously (LP-pump, Kamush, Lipopharm, Poland) and sterile Tygon® 3350 silicone hoses (2.4 × 0.8 × 0.8 mm) with a length of 30 and 50 cm for inlet and outlet, respectively. Bacterial suspensions were prepared (0.5 × 10^7 CFU/mL) in sterile 50-mL test tubes, which were placed in a heating block at 37 °C. Before experiments, all channels were assessed for tightness and sterilized using a 70% 2-propanol solution (10 min, flow rate 1 mL/min) and rinsed with sterile PBS solution (10 min, flow 0.1 mL/min). The formation of biofilm inside the channels was divided into three stages: (1) adhesion—at this stage S. aureus suspensions were passed through the channels for 4 h at a flow rate of 0.1 mL/min; (2) rinsing—the previously used hoses were replaced with new sterile ones, and the channels were rinsed with sterile PBS solution for 10 min at a flow rate of 0.1 mL/min; (3) biofilm growth—after flushing the channels, the silicone hoses were placed in tubes with MHB medium, which was passed through the channels for 24 h at a flow rate of 0.1 mL/min. All experiments included growth and sterility controls.
(§3) This assay was conducted also on the S. aureus ATCC 25923 and S. aureus 33,591 (MRSA) strains.

S. aureus ATCC 25923 = assay: microbe, parasite or virus in culture
Description: as §1, §2, §3

[8] = test system: S. aureus clinical strain 030N; design: method as in earlier work; conditions: clinical isolate 030N, nasal swab; cited from earlier work
[9] = test system: S. aureus clinical strain 005S; design: method as in earlier work; conditions: clinical isolate 005S, skin; cited from earlier work
[10] = test system: S. aureus clinical strain 060S; design: method as in earlier work; conditions: clinical isolate 060S, skin; cited from earlier work
[11] = S. aureus ATCC 33591 (MRSA) biofilm treated under flow with Retro-Omiganan (half MBEC) for 24 h
[12] = S. aureus ATCC 33591 (MRSA) biofilm treated under flow with Retro-Omiganan (half MBEC) for 48 h
[13] = S. aureus ATCC 33591 (MRSA) biofilm treated under flow with Retro-Omiganan (half MBEC) for 72 h
[14] = S. aureus 25923 biofilm treated under flow with Retro-Omiganan (half MBEC) for 24 h
[15] = S. aureus 25923 biofilm treated under flow with Retro-Omiganan (half MBEC) for 48 h
[16] = S. aureus 25923 biofilm treated under flow with Retro-Omiganan (half MBEC) for 72 h
[17] = Staphylococcus aureus, ATCC25923, 0 h
[18] = Staphylococcus aureus, ATCC25923, 24 h
[19] = Staphylococcus aureus, ATCC25923, 48 h
[20] = Staphylococcus aureus, ATCC25923, 72 h

Structure (SMILES)	Antimicrobial susceptibility (MIC) [1] [µg/mL]	Antimicrobial susceptibility (MIC) [2] [µg/mL]	Antimicrobial susceptibility (MIC) [3] [µg/mL]	Antimicrobial susceptibility (MIC) [4] [µg/mL]	Antimicrobial susceptibility (MIC) [5] [µg/mL]	Antimicrobial susceptibility (MIC) [6] [µg/mL]	MIC [7, 11] [µg/mL]	MIC [7, 12] [µg/mL]	MIC [7, 13] [µg/mL]	MIC ([7]; Staphylococcus aureus, 0 h) [µg/mL]	MIC ([7]; Staphylococcus aureus, 24 h) [µg/mL]	MIC ([7]; Staphylococcus aureus, 48 h) [µg/mL]	MIC ([7]; Staphylococcus aureus, 72 h) [µg/mL]	MIC (S. aureus ATCC 25923; [14]) [µg/mL]	MIC (S. aureus ATCC 25923; [15]) [µg/mL]	MIC (S. aureus ATCC 25923; [16]) [µg/mL]	MIC (S. aureus ATCC 25923; [17]) [µg/mL]	Antimicrobial susceptibility (MIC) [8] [µg/mL]	Antimicrobial susceptibility (MIC) [9] [µg/mL]	Antimicrobial susceptibility (MIC) [10] [µg/mL]	other results
CCC[C@@H]1C[C@@H](C(=O)N[C@@H]([C@H]2O[C@H](SC)[C@H](O)[C@@H](O)[C@H]2O)[C@@H](C)O)N(C)C1 [Lincomycin]	1	0.25	1	> 512	0.5	1	> 128	> 128	> 128	> 128	> 128	> 128	> 128	1.0 (≈ 2.46 µM)	1.0 (≈ 2.46 µM)	1.0 (≈ 2.46 µM)	1 (≈ 2.46 µM)	0.5	1	0.5	MIC (S. aureus ATCC 25923; [18]): 1 µg/mL (≈ 2.46 µM); MIC (S. aureus ATCC 25923; [19]): 1 µg/mL (≈ 2.46 µM); MIC (S. aureus ATCC 25923; [20]): 1 µg/mL (≈ 2.46 µM)
CC(=O)NC[C@H]1CN(c2ccc(N3CCOCC3)c(F)c2)C(=O)O1 [Linezolid]	2	0.25	2	2	2	1	1.0 (≈ 2.96 µM)	1.0 (≈ 2.96 µM)	1.0 (≈ 2.96 µM)	1 (≈ 2.96 µM)	1 (≈ 2.96 µM)	1 (≈ 2.96 µM)	1 (≈ 2.96 µM)	1.0 (≈ 2.96 µM)	1.0 (≈ 2.96 µM)	1.0 (≈ 2.96 µM)	1 (≈ 2.96 µM)	0.5	0.5	1	MIC (S. aureus ATCC 25923; [18]): 1 µg/mL (≈ 2.96 µM); MIC (S. aureus ATCC 25923; [19]): 1 µg/mL (≈ 2.96 µM); MIC (S. aureus ATCC 25923; [20]): 1 µg/mL (≈ 2.96 µM)
C/C(=C\C(=O)OCCCCCCCCC(=O)O)C[C@@H]1OC[C@H](C[C@@H]2O[C@H]2[C@@H](C)[C@H](C)O)[C@@H](O)[C@H]1O [Mupirocin]	0.25	> 512	0.25	0.5	32	0.125	≤ 0.25	≤ 0.25	≤ 0.25	≤ 0.25	≤ 0.25	≤ 0.25	≤ 0.25	≤ 0.25	≤ 0.25	≤ 0.25	≤ 0.25	0.25	> 512	> 512	MIC (S. aureus ATCC 25923; [18]): ≤ 0.25 µg/mL; MIC (S. aureus ATCC 25923; [19]): ≤ 0.25 µg/mL; MIC (S. aureus ATCC 25923; [20]): ≤ 0.25 µg/mL
CN(C)[C@@H]1C(O)=C(C(N)=O)C(=O)[C@@]2(O)C(O)=C3C(=O)c4c(O)cccc4[C@@](C)(O)[C@H]3C[C@@H]12 [Tetracycline]	0.25	1	0.5	32	0.25	0.5	–	–	–	–	–	–	–	–	–	–	–	0.5	0.5	0.125	MIC ([7]; Staphylococcus aureus, ATCC33591|MRSA, 0 h, S. aureus ATCC 33591 (MRSA), time 0 h (baseline, before peptide exposure)): 64 µg/mL (≈ 144 µM); MIC ([7]; Staphylococcus aureus, ATCC33591|MRSA, 24 h, S. aureus ATCC 33591 (MRSA) biofilm treated under flow with Omiganan (half MBEC) for 24 h): 64 µg/mL (≈ 144 µM); MIC ([7]; Staphylococcus aureus, ATCC33591|MRSA, 24 h, S. aureus ATCC 33591 (MRSA) biofilm treated under flow with Retro-Omiganan (half MBEC) for 24 h): 64 µg/mL (≈ 144 µM); MIC ([7]; Staphylococcus aureus, ATCC33591|MRSA, 48 h, S. aureus ATCC 33591 (MRSA) biofilm treated under flow with Omiganan (half MBEC) for 48 h): 64 µg/mL (≈ 144 µM); MIC ([7]; Staphylococcus aureus, ATCC33591|MRSA, 48 h, S. aureus ATCC 33591 (MRSA) biofilm treated under flow with Retro-Omiganan (half MBEC) for 48 h): 64 µg/mL (≈ 144 µM); MIC ([7]; Staphylococcus aureus, ATCC33591|MRSA, 72 h, S. aureus ATCC 33591 (MRSA) biofilm treated under flow with Omiganan (half MBEC) for 72 h): 64 µg/mL (≈ 144 µM); MIC ([7]; Staphylococcus aureus, ATCC33591|MRSA, 72 h, S. aureus ATCC 33591 (MRSA) biofilm treated under flow with Retro-Omiganan (half MBEC) for 72 h): 64 µg/mL (≈ 144 µM); MIC (S. aureus ATCC 25923; Staphylococcus aureus, ATCC25923, 0 h, S. aureus 25923, time 0 h (baseline, before peptide exposure)): ≤ 0.25 µg/mL; MIC (S. aureus ATCC 25923; Staphylococcus aureus, ATCC25923, 24 h, S. aureus 25923 biofilm treated under flow with Omiganan (half MBEC) for 24 h): ≤ 0.25 µg/mL; MIC (S. aureus ATCC 25923; Staphylococcus aureus, ATCC25923, 24 h, S. aureus 25923 biofilm treated under flow with Retro-Omiganan (half MBEC) for 24 h): ≤ 0.25 µg/mL; MIC (S. aureus ATCC 25923; Staphylococcus aureus, ATCC25923, 48 h, S. aureus 25923 biofilm treated under flow with Omiganan (half MBEC) for 48 h): ≤ 0.25 µg/mL; MIC (S. aureus ATCC 25923; Staphylococcus aureus, ATCC25923, 48 h, S. aureus 25923 biofilm treated under flow with Retro-Omiganan (half MBEC) for 48 h): ≤ 0.25 µg/mL; MIC (S. aureus ATCC 25923; Staphylococcus aureus, ATCC25923, 72 h, S. aureus 25923 biofilm treated under flow with Omiganan (half MBEC) for 72 h): ≤ 0.25 µg/mL; MIC (S. aureus ATCC 25923; Staphylococcus aureus, ATCC25923, 72 h, S. aureus 25923 biofilm treated under flow with Retro-Omiganan (half MBEC) for 72 h): ≤ 0.25 µg/mL

Source: paper PMC12055641, “The Study of Antistaphylococcal Potential of Omiganan and Retro-Omiganan Under Flow Conditions” (Probiotics and Antimicrobial Proteins, 2024)
